Assay [1] addresses T1, Amine oxidase [flavin-containing] A (Homo sapiens, UniProt P21397).
T1 sequence (P21397 whole entry): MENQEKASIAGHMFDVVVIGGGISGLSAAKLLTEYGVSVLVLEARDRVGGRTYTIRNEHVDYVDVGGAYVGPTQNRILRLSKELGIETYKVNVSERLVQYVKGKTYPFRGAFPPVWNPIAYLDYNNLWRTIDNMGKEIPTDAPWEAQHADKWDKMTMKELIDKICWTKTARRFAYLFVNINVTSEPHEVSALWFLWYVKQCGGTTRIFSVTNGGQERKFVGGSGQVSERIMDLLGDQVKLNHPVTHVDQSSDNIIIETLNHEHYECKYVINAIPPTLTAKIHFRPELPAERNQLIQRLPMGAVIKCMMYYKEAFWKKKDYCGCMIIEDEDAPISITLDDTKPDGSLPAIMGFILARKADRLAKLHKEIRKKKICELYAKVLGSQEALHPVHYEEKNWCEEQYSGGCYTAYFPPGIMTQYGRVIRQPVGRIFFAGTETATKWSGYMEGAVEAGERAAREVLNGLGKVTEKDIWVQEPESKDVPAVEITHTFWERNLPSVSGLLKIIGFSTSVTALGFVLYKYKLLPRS
In kind it is functional.

Assay [2] addresses T2, Prostaglandin G/H synthase 1 (Rattus norvegicus, UniProt Q63921).
T2 sequence (Q63921 whole entry): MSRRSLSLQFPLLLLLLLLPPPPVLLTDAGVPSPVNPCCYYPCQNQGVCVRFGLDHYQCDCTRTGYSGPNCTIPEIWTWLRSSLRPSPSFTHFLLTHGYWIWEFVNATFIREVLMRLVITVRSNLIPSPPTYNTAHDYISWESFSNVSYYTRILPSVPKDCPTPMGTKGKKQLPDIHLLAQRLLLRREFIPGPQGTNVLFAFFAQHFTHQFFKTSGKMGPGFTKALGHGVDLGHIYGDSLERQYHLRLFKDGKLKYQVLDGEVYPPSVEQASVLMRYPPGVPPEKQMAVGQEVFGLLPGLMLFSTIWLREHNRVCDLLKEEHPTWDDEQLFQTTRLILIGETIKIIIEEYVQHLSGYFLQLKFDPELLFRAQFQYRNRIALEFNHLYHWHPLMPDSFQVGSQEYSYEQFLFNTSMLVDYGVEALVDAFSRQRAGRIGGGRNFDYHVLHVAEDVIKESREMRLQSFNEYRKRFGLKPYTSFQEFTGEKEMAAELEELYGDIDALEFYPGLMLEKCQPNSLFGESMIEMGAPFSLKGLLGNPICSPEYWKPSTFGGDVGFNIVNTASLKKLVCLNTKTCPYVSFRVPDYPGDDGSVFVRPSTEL
The class given is functional.

The target in assay [3] is T3, Muscarinic acetylcholine receptor M2 (Homo sapiens, UniProt P08172).
T3 sequence (P08172 whole entry): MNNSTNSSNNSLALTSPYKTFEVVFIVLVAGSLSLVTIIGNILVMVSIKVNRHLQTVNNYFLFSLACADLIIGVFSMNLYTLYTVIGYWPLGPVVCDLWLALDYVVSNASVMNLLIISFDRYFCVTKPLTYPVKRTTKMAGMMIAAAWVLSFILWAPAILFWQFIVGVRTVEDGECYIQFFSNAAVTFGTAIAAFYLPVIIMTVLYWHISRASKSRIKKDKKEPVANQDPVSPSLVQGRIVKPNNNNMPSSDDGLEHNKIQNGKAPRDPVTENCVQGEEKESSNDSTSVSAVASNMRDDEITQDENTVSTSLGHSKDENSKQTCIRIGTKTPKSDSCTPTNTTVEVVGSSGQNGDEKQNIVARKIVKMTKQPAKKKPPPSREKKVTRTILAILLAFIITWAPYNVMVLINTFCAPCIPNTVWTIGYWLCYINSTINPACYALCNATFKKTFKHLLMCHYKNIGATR

Assay [4] deals with Voltage-gated inwardly rectifying potassium channel KCNH2 (Homo sapiens, UniProt Q12809). In kind it is functional.
Assay [5] concerns the target T4, Alpha-2C adrenergic receptor (Homo sapiens, UniProt P18825).
T4 sequence (P18825 whole entry): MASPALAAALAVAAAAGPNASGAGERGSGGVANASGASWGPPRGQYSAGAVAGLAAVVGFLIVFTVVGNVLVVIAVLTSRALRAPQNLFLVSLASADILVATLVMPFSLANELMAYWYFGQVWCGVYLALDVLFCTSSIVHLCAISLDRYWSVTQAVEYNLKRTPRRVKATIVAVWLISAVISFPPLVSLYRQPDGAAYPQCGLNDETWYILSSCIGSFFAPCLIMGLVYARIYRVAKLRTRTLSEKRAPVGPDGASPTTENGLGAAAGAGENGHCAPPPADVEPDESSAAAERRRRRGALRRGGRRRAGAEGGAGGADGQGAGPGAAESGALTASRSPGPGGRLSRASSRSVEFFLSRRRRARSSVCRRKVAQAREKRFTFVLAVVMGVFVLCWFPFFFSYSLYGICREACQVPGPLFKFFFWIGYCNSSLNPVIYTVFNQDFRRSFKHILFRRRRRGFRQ
The class given is functional.

A further assay deals with Mu-type opioid receptor (Homo sapiens, UniProt P35372).
The target in a further assay is Prothrombin (Homo sapiens, UniProt P00734). The class given is functional.
Assay [6] addresses Sodium-dependent dopamine transporter (Homo sapiens, UniProt Q01959).
The target of assay [7] is Gamma-aminobutyric acid receptor subunit alpha-1 (Rattus norvegicus, UniProt P62813).
Assay [8] has as its target Prostaglandin G/H synthase 1 (Homo sapiens, UniProt P23219). In kind it is functional.
The target in assay [9] is T5, Neuropeptide Y receptor type 1 (Homo sapiens, UniProt P25929).
T5 sequence (P25929 whole entry): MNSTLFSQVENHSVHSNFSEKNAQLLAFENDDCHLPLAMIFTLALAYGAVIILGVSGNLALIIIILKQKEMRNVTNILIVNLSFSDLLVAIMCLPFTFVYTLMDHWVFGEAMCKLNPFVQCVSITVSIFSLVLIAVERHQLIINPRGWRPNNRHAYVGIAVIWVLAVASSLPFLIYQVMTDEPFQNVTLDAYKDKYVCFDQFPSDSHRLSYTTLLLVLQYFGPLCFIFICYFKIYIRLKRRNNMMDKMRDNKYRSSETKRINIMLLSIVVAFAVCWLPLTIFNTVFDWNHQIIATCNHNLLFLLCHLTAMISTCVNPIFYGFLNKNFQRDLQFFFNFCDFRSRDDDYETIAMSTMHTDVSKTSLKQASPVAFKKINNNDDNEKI
As to conditions: read-out: AC50.

Assay [10] deals with Delta-type opioid receptor (Homo sapiens, UniProt P41143).
Also: assay procedure not described here.

Chain of Delta-type opioid receptor (P41143 whole entry): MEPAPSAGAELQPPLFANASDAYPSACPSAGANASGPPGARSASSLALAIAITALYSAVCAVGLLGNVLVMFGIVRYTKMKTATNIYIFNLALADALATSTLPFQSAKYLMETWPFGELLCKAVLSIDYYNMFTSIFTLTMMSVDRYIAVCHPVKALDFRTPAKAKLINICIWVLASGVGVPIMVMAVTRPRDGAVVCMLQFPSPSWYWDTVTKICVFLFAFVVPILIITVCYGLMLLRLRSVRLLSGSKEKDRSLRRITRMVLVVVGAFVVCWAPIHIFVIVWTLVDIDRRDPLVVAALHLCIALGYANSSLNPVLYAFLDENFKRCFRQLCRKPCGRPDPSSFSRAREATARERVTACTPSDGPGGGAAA
Chain of Prostaglandin G/H synthase 1 (Homo sapiens, UniProt P23219) (P23219 whole entry): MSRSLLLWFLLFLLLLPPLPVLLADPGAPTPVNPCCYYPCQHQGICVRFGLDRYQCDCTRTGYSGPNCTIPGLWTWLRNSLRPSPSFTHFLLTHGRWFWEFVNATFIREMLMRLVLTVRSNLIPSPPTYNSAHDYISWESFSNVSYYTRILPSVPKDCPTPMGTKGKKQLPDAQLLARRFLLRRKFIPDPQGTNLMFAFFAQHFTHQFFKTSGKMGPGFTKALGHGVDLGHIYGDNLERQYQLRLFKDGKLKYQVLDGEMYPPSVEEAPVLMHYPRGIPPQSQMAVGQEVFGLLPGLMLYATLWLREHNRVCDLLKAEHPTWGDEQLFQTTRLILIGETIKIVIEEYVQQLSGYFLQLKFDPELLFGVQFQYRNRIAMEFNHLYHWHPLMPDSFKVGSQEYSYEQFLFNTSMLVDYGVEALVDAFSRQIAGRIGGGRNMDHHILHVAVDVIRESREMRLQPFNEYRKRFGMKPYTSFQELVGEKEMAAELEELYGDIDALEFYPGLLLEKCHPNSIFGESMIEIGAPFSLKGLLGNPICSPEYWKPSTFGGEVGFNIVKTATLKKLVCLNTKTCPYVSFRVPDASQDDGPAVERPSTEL
Chain of Sodium-dependent dopamine transporter (Q01959 whole entry): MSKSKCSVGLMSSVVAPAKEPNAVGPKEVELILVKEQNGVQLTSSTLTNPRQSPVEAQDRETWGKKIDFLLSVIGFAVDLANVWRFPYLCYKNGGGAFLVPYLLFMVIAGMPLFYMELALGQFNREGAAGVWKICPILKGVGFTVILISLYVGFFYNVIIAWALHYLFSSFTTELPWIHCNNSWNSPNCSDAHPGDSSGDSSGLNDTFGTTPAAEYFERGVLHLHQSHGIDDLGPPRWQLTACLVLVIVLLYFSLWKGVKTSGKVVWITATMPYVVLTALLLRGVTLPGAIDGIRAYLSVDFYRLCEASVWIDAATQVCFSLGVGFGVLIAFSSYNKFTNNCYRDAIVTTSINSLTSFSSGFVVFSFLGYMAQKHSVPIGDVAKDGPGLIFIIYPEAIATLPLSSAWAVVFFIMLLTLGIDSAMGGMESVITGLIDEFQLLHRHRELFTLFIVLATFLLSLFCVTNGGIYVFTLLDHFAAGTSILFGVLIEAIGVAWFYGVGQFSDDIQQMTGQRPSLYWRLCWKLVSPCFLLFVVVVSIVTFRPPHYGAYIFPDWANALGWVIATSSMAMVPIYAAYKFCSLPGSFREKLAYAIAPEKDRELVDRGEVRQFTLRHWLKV
Chain of Mu-type opioid receptor (P35372 whole entry): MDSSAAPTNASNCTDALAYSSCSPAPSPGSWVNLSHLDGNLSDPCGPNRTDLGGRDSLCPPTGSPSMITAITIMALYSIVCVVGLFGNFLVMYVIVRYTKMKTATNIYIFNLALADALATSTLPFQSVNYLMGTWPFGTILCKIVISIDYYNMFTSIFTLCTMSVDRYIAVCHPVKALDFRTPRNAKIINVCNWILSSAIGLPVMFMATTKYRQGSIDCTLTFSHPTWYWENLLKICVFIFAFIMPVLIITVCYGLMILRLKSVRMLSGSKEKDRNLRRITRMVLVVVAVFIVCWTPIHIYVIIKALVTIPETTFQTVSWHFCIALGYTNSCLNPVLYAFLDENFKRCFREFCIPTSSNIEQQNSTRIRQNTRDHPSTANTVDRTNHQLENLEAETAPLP
Chain of Gamma-aminobutyric acid receptor subunit alpha-1 (P62813 whole entry): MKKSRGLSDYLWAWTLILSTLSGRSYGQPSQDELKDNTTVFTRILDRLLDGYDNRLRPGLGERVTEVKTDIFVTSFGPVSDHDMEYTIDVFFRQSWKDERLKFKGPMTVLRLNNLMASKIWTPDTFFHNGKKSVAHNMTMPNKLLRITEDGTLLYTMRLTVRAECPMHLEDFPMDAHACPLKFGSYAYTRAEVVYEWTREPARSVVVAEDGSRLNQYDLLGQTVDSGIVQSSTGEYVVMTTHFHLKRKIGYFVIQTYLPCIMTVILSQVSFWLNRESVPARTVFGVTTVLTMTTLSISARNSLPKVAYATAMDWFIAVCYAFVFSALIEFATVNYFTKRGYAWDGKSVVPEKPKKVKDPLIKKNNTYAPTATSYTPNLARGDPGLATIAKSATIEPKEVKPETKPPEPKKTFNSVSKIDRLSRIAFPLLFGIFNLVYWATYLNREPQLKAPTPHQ
Chain of Voltage-gated inwardly rectifying potassium channel KCNH2 (Q12809 whole entry): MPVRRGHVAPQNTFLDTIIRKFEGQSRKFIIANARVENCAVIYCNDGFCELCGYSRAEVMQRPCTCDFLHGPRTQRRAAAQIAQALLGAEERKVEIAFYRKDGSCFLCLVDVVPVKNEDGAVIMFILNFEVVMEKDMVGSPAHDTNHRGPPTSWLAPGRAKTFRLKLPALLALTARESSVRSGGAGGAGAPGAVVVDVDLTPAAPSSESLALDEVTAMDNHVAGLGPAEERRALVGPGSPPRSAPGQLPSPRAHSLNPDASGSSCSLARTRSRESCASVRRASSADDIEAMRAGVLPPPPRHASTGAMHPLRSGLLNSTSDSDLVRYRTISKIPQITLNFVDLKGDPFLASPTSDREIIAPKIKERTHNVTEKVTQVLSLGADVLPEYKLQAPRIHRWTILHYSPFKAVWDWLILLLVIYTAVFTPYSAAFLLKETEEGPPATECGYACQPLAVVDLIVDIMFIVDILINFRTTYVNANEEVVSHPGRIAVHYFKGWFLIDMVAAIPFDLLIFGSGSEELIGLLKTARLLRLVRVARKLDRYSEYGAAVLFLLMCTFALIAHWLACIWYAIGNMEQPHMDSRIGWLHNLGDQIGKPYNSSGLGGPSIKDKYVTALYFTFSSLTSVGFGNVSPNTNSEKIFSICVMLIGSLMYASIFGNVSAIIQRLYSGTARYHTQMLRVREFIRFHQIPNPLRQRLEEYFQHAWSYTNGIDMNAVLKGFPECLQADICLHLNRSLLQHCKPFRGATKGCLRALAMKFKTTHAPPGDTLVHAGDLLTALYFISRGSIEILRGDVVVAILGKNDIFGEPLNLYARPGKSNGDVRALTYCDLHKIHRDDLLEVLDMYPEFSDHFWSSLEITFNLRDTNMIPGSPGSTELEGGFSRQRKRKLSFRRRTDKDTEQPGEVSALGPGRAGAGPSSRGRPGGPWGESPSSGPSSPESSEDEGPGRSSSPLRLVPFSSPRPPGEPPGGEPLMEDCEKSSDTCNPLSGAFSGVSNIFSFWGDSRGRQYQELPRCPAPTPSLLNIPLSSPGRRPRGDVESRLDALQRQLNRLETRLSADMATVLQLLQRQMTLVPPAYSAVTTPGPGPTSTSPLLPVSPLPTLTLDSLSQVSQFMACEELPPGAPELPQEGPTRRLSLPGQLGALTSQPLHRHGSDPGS

Regarding `CCCN(CCC)C(=O)Cc1c(-c2ccc(Cl)cc2)nc2ccc(Cl)cn12` [ALPIDEM], the AC50 was above 30 µM in assay [1]; above 30 µM in assay [2]; above 30 µM in assay [3]; 14.8 µM in assay [4]; above 30 µM in assay [5]; 15.5 µM on Mu-type opioid receptor. The AC50 (on Prothrombin; in assay [6]; in assay [7]; in assay [8]; in [9]; in assay [10]) was above 30 µM each time.
On to `OC[C@H]1O[C@@](CO)(O[C@H]2O[C@H](CO)[C@@H](O)[C@H](O)[C@H]2O)[C@@H](O)[C@@H]1O` [SUCROSE], for which the AC50 (in assay [1]; in assay [2]; in assay [3]; in [4]; on Mu-type opioid receptor; at Prothrombin) was above 30 µM throughout. For the same compound, the AC50 in [6], in assay [7], in [8], in assay [9] and in [10] was above 30 µM throughout.
On to `CCCC(CCC)C(=O)O` [VALPROIC ACID], for which the AC50 was above 30 µM in assay [1]; above 30 µM in assay [2]; above 30 µM in assay [3]; above 10 µM in [5]; above 30 µM on Mu-type opioid receptor; above 30 µM on Prothrombin. Moreover, the AC50 in assay [6] is above 30 µM; in assay [7], above 10 µM; in [8], above 30 µM; in [9], above 30 µM; in assay [10], above 30 µM.

For the origin of these results see ChEMBL document CHEMBL5291721, “A preclinical secondary pharmacology resource illuminates target-adverse drug reaction associations of marketed drugs” (Nat Commun, 2023).
